Experiments:
[1] = system: defensin production in MDBK cells; assay: Defensin induction in MDBK cells (RNA-PCR / QPCR of β-defensin RNA); assay type: cell-based, bovine; conditions: for effect on defensin production: at concentrations as high as fifty micrograms per milliliter
Procedure: Cell Culture: MDBK (Madin-Darby Bovine Kidney) cells were obtained from the ATCC (Rockville, Md.) and were maintained in growth medium consisting of Eagle's modified essential media with Earle's balanced salt solution, 10% horse serum, 0.10 mM non-essential amino acids and no antibiotics. For stimulation experiments, cells were plated into six well tissue culture plates and maintained for three days in growth medium until cells were almost confluent. The medium was then changed to serum-free epithelial cell growth medium (Clonetics, San Diego, Calif.) and the test material was added to the dish. Twenty-four hours later, the medium was withdrawn and cells were rinsed with phosphate-buffered saline. Total RNA was then isolated using Trizol reagent (Gibco/BRL, Grand Island, N.Y.) according to protocols supplied by the manufacturer. RNA was quantified by measuring the OD260 of each sample.
RNA-Polymerase Chain Reaction: Total RNA was treated with DNase prior to reverse transcription and PCR. The DNase was heat inactivated at 65° C. in the presence of EDTA for ten minutes. Reverse transcription and PCR were performed essentially as described for the GeneAmp RNA PCR kit (Perkin Elmer, Foster City, Calif.). Briefly, approximately 250 nanograms of total RNA was primed with polydT and reverse transcribed with Murine Leukemia Virus reverse transcriptase in a total volume of 16 μL at room temperature for ten minutes and then at 42° C. for an additional fifteen minutes. The reverse transcriptase was heat inactivated at 99° C. for five minutes and the reaction was chilled to 4 degrees C. This reverse transcription reaction was then split in half: one portion was used for amplification of the target defensin RNA, and the other was treated in parallel to determine the β-tubulin RNA level as a control. Additional reagents necessary for the PCR reaction, including appropriate synthetic DNA primers;
were added after splitting the reverse transcription reactions to bring the reaction volumes to 40 μL. The reactions were then subjected to thermal cycling as follows: 95° C. for one minute, 52° C. for one minute, 72° C. for one minute for 30 cycles followed by a single 72° C. incubation for fifteen minutes to allow for extension. The expected 200 base pair β-defensin PCR product was measured by gel electrophoresis or QPCR (Quantitative PCR).
Product Capture for QPCR System: 10 μL of the final PCR mixture was combined with 15 μL of strepavidin bead slurry (Perkin-Elmer, Foster City, Calif.), 21 μL H2O and 4 μL of 10× PCR buffer to yield a 50 μL binding reaction. The binding reactions were incubated at room temperature for fifteen minutes with occasional agitation. One ml of QPCR assay buffer was then added to the reaction. The quantity of PCR product was subsequently measured with the Perkin-Elmer QPCR instrument (Perkin-Elmer, Foster City, Calif.). The amount of defensin product was normalized to endogenous expression in MDBK cells in the absence of any experimental agent.

[2] = system: defensin production in HT-29 cells; assay: Defensin induction in the human colon epithelial cell line HT-29; assay type: cell-based; conditions: FIG. 5
[3] = system: defensin production in epithelial cells; assay: Defensin inducing effect of isoleucine analogs in epithelial cells (FIGS. 6-9); assay type: cell-based; conditions: for defensin induction: epithelial cells, FIGS. 6, 7 and 8

## CC[C@H](C)[C@H](N)C(=O)O [L-isoleucine]
[1]; FIG. 2
  dose-response effect on defensin production: dose-dependent effect
[1]; L-isoleucine versus D-isoleucine, FIGS. 2 and 3
  concentration increasing defensin production, fold less than that of D-isoleucine: fifty to one-hundred
[2]
  defensin induction: defensin inducing property

## COC(=O)[C@@H](N)Cc1ccc(O)cc1 [L-tyrosine methyl ester, reference compound]
[1]
  effect on defensin production: no effect

## CC(C)[C@H](N)C(=O)O [L-valine]
[1]
  effect on defensin production: no effect
[3]; FIG. 9
  stimulation of defensin expression, concentrations compared with isoleucine: stimulates defensin expression at concentrations that are substantially higher than those needed for isoleucine

## CC[C@@H](C)[C@H](N)C(=O)O [alloisoleucine]
[1]; FIG. 4
  effectiveness as inducer of defensin production compared with isoleucine: not as effective an inducer

## CC[C@H](C)C(=O)C(=O)O [alpha-keto-methylvalerate]
[3]
  defensin induction: inducers of defensin production

## CC[C@H](C)[C@H](N)C(=O)NO [isoleucine hydroxamate]
[3]
  defensin induction: inducers of defensin production

— patent US20020076393A1, “Method for stimulation of defensin production” (MAGAININ PHARMACEUTICALS, INC., priority 1998, published 2002)
